Results: PubChem BioAssay (NCI)
Where “and” joins values, the source holds several entries; their conditions need not be identical. Equal entries are not always repeated.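 96-well plates; 48 h exposure; 5 concentrations. Endpoints by linear interpolation between flanking doses. Not reached: highest tested concentration assigned. GI50: concentration for 50% inhibition of growth. TGI: concentration producing complete growth inhibition.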

Columns and labels:
Experiment in all cases: inhibition of tumour cell growth, NCI panel, 48 h
[1] = tested on: 786-0 renal
[2] = tested on: A498 renal
[3] = tested on: A549 NSCLC
[4] = tested on: ACHN renal
[5] = tested on: BT-549 breast
[6] = tested on: CAKI-1 renal
[7] = tested on: CCRF-CEM leukemia
[8] = tested on: DLD-1 colon
[9] = tested on: DMS 114 small cell lung
[10] = tested on: DMS 273 small cell lung
[11] = tested on: DU-145 prostate
[12] = tested on: EKVX NSCLC
[13] = tested on: HCC-2998 colon
[14] = tested on: HCT-116 colon
[15] = tested on: HCT-15 colon
[16] = tested on: HL-60(TB) leukemia
[17] = tested on: HOP-18 NSCLC
[18] = tested on: HOP-62 NSCLC
[19] = tested on: HOP-92 NSCLC
[20] = tested on: HS 578T breast
[21] = tested on: HT29 colon
[22] = tested on: IGROV1 ovarian
[23] = tested on: K-562 leukemia
[24] = tested on: KM12 colon
[25] = tested on: KM20L2 colon
[26] = tested on: LOX IMVI melanoma
[27] = tested on: LXFL 529 NSCLC
[28] = tested on: M14 melanoma
[29] = tested on: M19-MEL melanoma
[30] = tested on: MALME-3M melanoma
[31] = tested on: MCF7 breast
[32] = tested on: MDA-MB-231 breast
[33] = tested on: MDA-MB-435
[34] = tested on: MDA-N
[35] = tested on: MOLT-4 leukemia
[36] = tested on: NCI-H226 lung
[37] = tested on: NCI-H23 lung
[38] = tested on: NCI-H460 lung
[39] = tested on: NCI-H522 lung
[40] = tested on: NCI/ADR-RES ovarian
[41] = tested on: OVCAR-3 ovarian
[42] = tested on: OVCAR-4 ovarian
[43] = tested on: OVCAR-5 ovarian
[44] = tested on: OVCAR-8 ovarian
[45] = tested on: PC-3 prostate
[46] = tested on: RPMI-8226 leukemia
[47] = tested on: RXF 393 renal
[48] = tested on: RXF-631 renal
[49] = tested on: SF-268 CNS
[50] = tested on: SF-295 CNS
[51] = tested on: SF-539 CNS
[52] = tested on: SK-MEL-2 melanoma
[53] = tested on: SK-MEL-28 melanoma
[54] = tested on: SK-MEL-5 melanoma
[55] = tested on: SK-OV-3 ovarian
[56] = tested on: SN12C renal
[57] = tested on: SNB-19 CNS
[58] = tested on: SNB-75 CNS
[59] = tested on: SNB-78 CNS
[60] = tested on: SR leukemia
[61] = tested on: SW-620 colon
[62] = tested on: T-47D breast
[63] = tested on: TK-10 renal
[64] = tested on: U251 CNS
[65] = tested on: UACC-257 melanoma
[66] = tested on: UACC-62 melanoma
[67] = tested on: UO-31 renal
[68] = tested on: XF 498 CNS
[69] = tested on: COLO 205 colon

## O=C1C(Br)=C(Br)C(=O)c2ccccc21
[1]
  TGI: 32.3 µM and 23.5 µM
[2]
  GI50: 48.5 µM and 13.4 µM
  TGI: > 100 µM and 27.1 µM
[3]
  TGI: 55.8 µM
[4]
  GI50: 15.2 µM and 5.76 µM
  TGI: 28.4 µM and 14.2 µM
[5]
  TGI: 15.3 µM
[6]
  TGI: 13.7 µM
[7]
  GI50: 9.85 µM and 2.25 µM
[8]
  TGI: 35.2 µM and 67.5 µM
[9]
  GI50: 17.6 µM and 1.91 µM
  TGI: 34.9 µM and 6.91 µM
[10]
  GI50: 49.9 µM and 9.23 µM
  TGI: > 100 µM and 23.5 µM
[11]
  TGI: 33 µM
[12]
  GI50: 100 µM and 20 µM
  TGI: > 100 µM and 39.9 µM
[13]
  TGI: 46.3 µM and 34.5 µM
[14]
  TGI: 31.8 µM and 28.1 µM
[15]
  TGI: 31.4 µM and 45.1 µM
[16]
  TGI: 15.6 µM
[17]
  TGI: 35.5 µM
[18]
  TGI: 37.6 µM and 44.4 µM
[19]
  GI50: 13.4 µM and 1.73 µM
  TGI: 27 µM and 4.59 µM
[20]
  TGI: > 60.7 µM
[21]
  TGI: > 100 µM and 21.8 µM
[22]
  GI50: 16.9 µM and 6.06 µM
  TGI: 45.5 µM and 17.4 µM
[23]
  TGI: > 100 µM
[24]
  TGI: 36.9 µM and 33.3 µM
[25]
  TGI: > 100 µM and 32.1 µM
[26]
  GI50: 16.5 µM and 4.69 µM
  TGI: 31.4 µM and 12.3 µM
[27]
  GI50: 19.2 µM and 5.82 µM
  TGI: 34 µM and 11.7 µM
[28]
  TGI: 28.4 µM and 22.6 µM
[29]
  GI50: 16.1 µM and 6.98 µM
  TGI: 29.8 µM and 21.7 µM
[30]
  GI50: 16.8 µM and 6.59 µM
  TGI: 31 µM and 16 µM
[31]
  TGI: > 100 µM
[32]
  TGI: 11.6 µM
[33]
  TGI: 21.8 µM
[34]
  TGI: 11.4 µM
[35]
  GI50: 7.01 µM and 1.34 µM
[36]
  GI50: 15.5 µM and 4.52 µM
  TGI: 31.9 µM and 12.2 µM
[37]
  GI50: 17.2 µM and 6.6 µM
  TGI: 33.5 µM and 17.6 µM
[38]
  GI50: 32.7 µM and 10.6 µM
  TGI: > 100 µM and 33.9 µM
[39]
  GI50: 16.3 µM and 3.77 µM
  TGI: 29.9 µM and 15.5 µM
[40]
  TGI: 66.8 µM
[41]
  GI50: 17.9 µM and 8.34 µM
  TGI: 32.4 µM and 27.7 µM
[42]
  TGI: 31.4 µM and 33.3 µM
[43]
  TGI: 41.7 µM and 22.9 µM
[44]
  GI50: 17 µM and 7.06 µM
  TGI: 30.9 µM and 57 µM
[45]
  TGI: 31.7 µM
[46]
  TGI: 10.4 µM
[47]
  GI50: 16.2 µM and 5.85 µM
  TGI: 29.9 µM and 15.6 µM
[48]
  TGI: 20.1 µM
[49]
  GI50: 23.3 µM and 3.27 µM
  TGI: 57.7 µM and 12.9 µM
[50]
  GI50: 91.1 µM and 14.6 µM
  TGI: > 100 µM and 28.6 µM
[51]
  GI50: 19.4 µM and 2.82 µM
  TGI: 36 µM and 10.6 µM
[52]
  TGI: 36.2 µM and 29 µM
[53]
  GI50: 18.4 µM and 4.98 µM
  TGI: 32.8 µM and 15.6 µM
[54]
  TGI: 23.3 µM
[55]
  GI50: 16.1 µM and 5.4 µM
  TGI: 31.1 µM and 13.2 µM
[56]
  GI50: 16.4 µM and 5.09 µM
  TGI: 30.2 µM and 17.1 µM
[57]
  GI50: 18.8 µM and 9.17 µM
  TGI: 37.9 µM and 17.4 µM
[58]
  GI50: 27.2 µM and 3.27 µM
  TGI: 79 µM and 11.1 µM
[59]
  GI50: 26.5 µM and 7.52 µM
  TGI: 48.9 µM and 18.4 µM
[60]
  TGI: 9.54 µM
[61]
  GI50: 16 µM and 2.28 µM
  TGI: 29.5 µM and 8.64 µM
[62]
  TGI: 12.5 µM
[63]
  TGI: 32.4 µM and 26.6 µM
[64]
  GI50: 17.5 µM and 2.16 µM
  TGI: 31.3 µM and 4.68 µM
[65]
  GI50: 18.2 µM and 8.21 µM
  TGI: 32.6 µM and 16.7 µM
[66]
  TGI: 31.6 µM and 22.7 µM
[67]
  GI50: 13.6 µM and 5.55 µM
  TGI: 26.7 µM and 14.7 µM
[68]
  GI50: 15.1 µM and 2.98 µM
  TGI: 29.7 µM and 9.41 µM

## O=C(/C=C/c1ccccc1O)c1cccc2ccccc12
[1]
  TGI: > 100 µM
[2]
  TGI: > 100 µM
[3]
  TGI: > 100 µM
[4]
  TGI: > 100 µM
[6]
  TGI: > 100 µM
[7]
  TGI: 54 µM
[69]
  TGI: > 68.6 µM
[8]
  TGI: > 100 µM
[9]
  TGI: > 92.2 µM
[10]
  TGI: > 100 µM
[12]
  TGI: > 100 µM
[13]
  TGI: > 100 µM
[14]
  TGI: > 69.7 µM
[15]
  TGI: > 58.4 µM
[16]
  TGI: > 80.8 µM
[17]
  TGI: > 100 µM
[18]
  TGI: > 100 µM
[19]
  TGI: > 100 µM
[21]
  TGI: > 100 µM
[22]
  TGI: > 100 µM
[23]
  TGI: > 100 µM
[24]
  TGI: > 100 µM
[25]
  TGI: > 100 µM
[26]
  TGI: 98.6 µM
[27]
  TGI: > 100 µM
[28]
  TGI: > 100 µM
[29]
  TGI: > 100 µM
[30]
  TGI: > 100 µM
[35]
  TGI: > 83.7 µM
[36]
  TGI: > 100 µM
[37]
  TGI: > 100 µM
[38]
  TGI: > 100 µM
[39]
  TGI: > 100 µM
[41]
  TGI: > 100 µM
[42]
  TGI: > 100 µM
[43]
  TGI: > 100 µM
[44]
  TGI: > 100 µM
[46]
  TGI: 76.6 µM
[47]
  TGI: > 88.9 µM
[48]
  TGI: > 100 µM
[49]
  TGI: > 100 µM
[50]
  TGI: > 100 µM
[51]
  TGI: > 100 µM
[52]
  TGI: > 100 µM
[53]
  TGI: > 100 µM
[54]
  TGI: > 100 µM
[55]
  TGI: > 100 µM
[56]
  TGI: > 100 µM
[57]
  TGI: > 100 µM
[58]
  TGI: > 100 µM
[59]
  TGI: > 100 µM
[60]
  TGI: > 100 µM
[61]
  TGI: > 46.9 µM
[63]
  TGI: > 100 µM
[64]
  TGI: > 66.4 µM
[65]
  TGI: > 100 µM
[66]
  TGI: > 100 µM
[67]
  TGI: > 100 µM
[68]
  TGI: > 100 µM
